From patent publication US20210008101A1, “METHODS AND COMPOSITIONS FOR PREVENTING, REDUCING OR ERADICATING TOXICITY CAUSED BY ACETAMINOPHEN (APAP)” (SINEW PHARMA INC., priority 2018, published 2021)
“Also recorded” adds a separate entry of the source.

Tests used:
Type in all cases: in vivo, Sprague-Dawley rats
[1] = system: APAP-induced renal lesions; assay: Histological examination of kidney (H&E) in APAP-induced toxicity animal model; settings: H&E stained kidney section, 200×
Experimental: (§1) Male Sprague-Dawley rats (weighing 220-300 g) were obtained from Professor Dr. Gonzalez of the American Country Health Research Institute (USA), introduces three male and four female mice, pairs voluntarily reproduces. All of the experiments were performed in adherence with the National Institutes of Health Guidelines for the treatment of animals. All of the mice were maintained in a room with air/humidity control and a 12-h light/dark cycle, and allowed access to food and water ad libitum throughout the experiment.
(§2) In the single dose study of the antidote effect of APAP metabolic enzyme inhibition on APAP-induced nephrotoxicity, rats were randomly divided into 3 treatment groups: (1) a normal control group (NC, n=5), in which normal SD-rats were orally administrated with saline four times a day for multiple doses at a volume of 1 mL/kg; (2) an APAP control group (APAP, n=5), in which normal SD-rats were orally administrated with APAP in saline at dose of 1 g/kg (1,000 mg/kg) for single oral dose administration; (3) an positive control group (NAC, n=5), in which normal SD-rats were orally administrated with APAP and N-acetylcysteine (NAC) in saline at dose of 1 g/kg and 140 mg/kg for single oral dose administration; (4) the various selected antidote test groups (each groups, n=5), in which normal SD-rats were orally administered with APAP in saline at dose of 1,000 mg/kg and e various antidote agents each at dose of less than or equivalent to 200 mg per 60 kg person body weight of single oral dose administration. In addition, according to US FDA Guidance for Industry “Estimating the Maximum Safe Starting Dose in Initial Clinical Trials for Therapeutics in Adult Healthy Volunteers”, the HED (human equivalent dose) for a human adult of 60 kg can be calculated as follows: HED=animal dose (1,000 mg/kg in rats)×human body weight (60 kg)/6.2=9.677g (about 10 g).
The kidney groups were fixed in 10% neutral formalin for 48-72 h. Then, tissues were trimmed and processed for a routine histopathological examination. […]

[2] = system: APAP-induced hepatotoxicity; assay: Plasma AST and ALT determination in APAP-induced toxicity animal model; settings: SD-rats, mean ± SD
Experimental: as §1
In the single dose study […], rats were randomly divided into 3 treatment groups: (1) a normal control group (NC, n=5), in which normal SD-rats were orally administrated with saline four times a day for multiple doses at a volume of 1 mL/kg; (2) an APAP control group (APAP, n=5), in which normal SD-rats were orally administrated with APAP in saline at dose of 1 g/kg (1,000 mg/kg) for single oral dose administration; (3) an positive control group (NAC, n=5), in which normal SD-rats were orally administrated with APAP and N-acetylcysteine (NAC) in saline at dose of 1 g/kg and 140 mg/kg for single oral dose administration; (4) the various selected antidote test groups (each groups, n=5), in which normal SD-rats were orally administered with APAP in saline at dose of 1,000 mg/kg and e various antidote agents each at dose of less than or equivalent to 200 mg per 60 kg person body weight of single oral dose administration. In addition, according to US FDA Guidance for Industry “Estimating the Maximum Safe Starting Dose in Initial Clinical Trials for Therapeutics in Adult Healthy Volunteers”, the HED (human equivalent dose) for a human adult of 60 kg can be calculated as follows: HED=animal dose (1,000 mg/kg in rats)×human body weight (60 kg)/6.2=9.677g (about 10 g).
(§3) At the end of the treatment, the animals were sacrificed under diethyl ether anesthesia. Blood was collected from the hearts of the mice into heparin tubes, and plasma was separated by centrifugation at 13,000×g for 5 min at 4° C. Aliquots of plasma were transferred to Eppendorf tubes and stored at −80° C. until analysis.
Plasma enzyme activities (aspartate aminotransferase [AST] and alanine aminotransferase [ALT]) were determined at 37° C. by using a Synchron LXi 725 (Beckman Instruments, Palo Alto, Calif. USA) with kits provided by the manufacturer.
(§4) All data are represented in mean ± standard deviation (SD) and the results are calculated using ANOVA to determine the significance. Statistical Package of the Social Science program (Version 13, SPSS Inc.) is used for calculations followed by post hoc test to examine the least significant difference for multiple comparisons so as to confirm the significant differences between groups and the average difference between groups was significant p<0.05.

[3] = system: APAP-induced nephrotoxicity; assay: Serum creatinine and BUN (kidney function) in APAP-induced toxicity animal model; settings: SD-rats, mean ± SD
Experimental: as §1, §2, §3
Serum creatinine and BUN levels were measured using the commercial kits (BEN) (Biochemical Enterprise, Milano, Italy) CR280 and BK151 in an automatic biochemical analyzer (ChemWell, Palm City, Fla.) at 340 nm and 510 nm, respectively.
as §4

[4] = system: toxicity (nephrotoxicity and hepatotoxicity) caused by APAP; assay: Overall antidote activity against toxicity caused by APAP (animal model); settings: rats given APAP 1,000 mg/kg; summary of Table 1
Experimental: as §1, §2

[5] = APAP alone 1,000 mg/kg single oral dose (toxicity control group), n=5
[6] = APAP alone 1,000 mg/kg single oral dose (toxicity control group), n=5, listed as AAP
[7] = APAP 1,000 mg/kg oral plus antidote at high dose
[8] = APAP 1,000 mg/kg oral plus antidote at low dose
[9] = APAP 1,000 mg/kg single oral dose plus antidote single oral dose, n=5

CC(=O)Nc1ccc(O)cc1 [APAP, N-acetyl-para-aminophenol]
Kidney histology (renal lesions), FIG. 1 ([1]; acetaminophen 1 g/kg alone): severe renal lesions including necrosis, congestion and extravasation of red blood cells | Kidney histology (renal lesions), FIG. 1 ([1]; acetaminophen 1 g/kg alone, listed as acetaminophen): Severe necrosis, congestion and extravasation of red blood cells were seen | ALT (hepatotoxicity) [2, 5]: 382.3±32.1 IU/L | AST (hepatotoxicity) [2, 5]: 591.0±59.2 IU/L | ALT (hepatotoxicity) [2, 6]: 382.3 ± 32.1 IU/L | AST (hepatotoxicity) [2, 6]: 591.0 ± 59.2 IU/L | BUN (nephrotoxicity) [3, 5]: 87.8 ± 6.6 mg/dL | Creatinine (nephrotoxicity) [3, 5]: 1.13 ± 0.17 mg/dL | BUN (nephrotoxicity) [3, 6]: 87.8 ± 6.6 mg/dL | Creatinine (nephrotoxicity) [3, 6]: 1.13 ± 0.17 mg/dL

O=c1c(O)c(-c2ccc(O)cc2)oc2cc(O)cc(O)c12 [Kaempferol]
Antidote activity against toxicity (nephrotoxicity and hepatotoxicity) caused by APAP [4]: effective in reducing or eradicating toxicity | ALT (hepatotoxicity) [2, 7]: 82.2 ± 17.6 IU/L | AST (hepatotoxicity) [2, 7]: 332.2 ± 27.1 IU/L | ALT (hepatotoxicity) [2, 8]: 179.4 ± 12.9 IU/L | AST (hepatotoxicity) [2, 8]: 395.6 ± 32.6 IU/L | BUN (nephrotoxicity) [3, 7]: 31.5 ± 7.6 mg/dL | Creatinine (nephrotoxicity) [3, 7]: 0.38 ± 0.09 mg/dL | BUN (nephrotoxicity) [3, 8]: 58.8 ± 7.0 mg/dL | Creatinine (nephrotoxicity) [3, 8]: 0.70 ± 0.09 mg/dL

O=c1cc(-c2ccc(O)c(O)c2)oc2cc(O)cc(O)c12 [Luteolin]
Antidote activity against toxicity (nephrotoxicity and hepatotoxicity) caused by APAP [4]: effective in reducing or eradicating toxicity | ALT (hepatotoxicity) [2, 7]: 57.1 ± 14.7 IU/L | AST (hepatotoxicity) [2, 7]: 223.8 ± 15.5 IU/L | ALT (hepatotoxicity) [2, 8]: 78.9 ± 15.7 IU/L | AST (hepatotoxicity) [2, 8]: 279.1 ± 35.1 IU/L | BUN (nephrotoxicity) [3, 7]: 23.7 ± 4.4 mg/dL | Creatinine (nephrotoxicity) [3, 7]: 0.25 ± 0.07 mg/dL | BUN (nephrotoxicity) [3, 8]: 31.5 ± 7.3 mg/dL | Creatinine (nephrotoxicity) [3, 8]: 0.43 ± 0.08 mg/dL

OC[C@@H](O)[C@@H](O)[C@H](O)[C@H](O)CO [Mannitol]
Antidote activity against toxicity (nephrotoxicity and hepatotoxicity) caused by APAP [4]: effective in reducing or eradicating toxicity | ALT (hepatotoxicity) [2, 9]: 91.9 ± 8.4 IU/L | AST (hepatotoxicity) [2, 9]: 365.7 ± 35.5 IU/L | BUN (nephrotoxicity) [3, 9]: 41.0 ± 2.6 mg/dL | Creatinine (nephrotoxicity) [3, 9]: 0.56 ± 0.13 mg/dL

CC(=O)N[C@@H](CS)C(=O)O [NAC, N-acetylcysteine, reference compound]
Kidney histology (renal lesions), FIG. 1 ([1]; acetaminophen 1 g/kg plus antidote): Mild to moderate degenerations were seen; also recorded: reduced to mild to moderate level | ALT (hepatotoxicity) [2, 9]: 206.7 ± 20.1 IU/L | AST (hepatotoxicity) [2, 9]: 423.7 ± 38.1 IU/L | BUN (nephrotoxicity) [3, 9]: 48.4 ± 9.8 mg/dL | Creatinine (nephrotoxicity) [3, 9]: 0.64 ± 0.05 mg/dL

O=C1C[C@@H](c2ccc(O)cc2)Oc2cc(O)cc(O)c21 [Nariagenin]
Antidote activity against toxicity (nephrotoxicity and hepatotoxicity) caused by APAP [4]: effective in reducing or eradicating toxicity | ALT (hepatotoxicity) [2, 9]: 63.1 ± 11.6 IU/L | AST (hepatotoxicity) [2, 9]: 231.1 ± 39.0 IU/L | BUN (nephrotoxicity) [3, 9]: 36.0 ± 7.8 mg/dL | Creatinine (nephrotoxicity) [3, 9]: 0.32 ± 0.03 mg/dL

OC[C@H]1O[C@H](O[C@]2(CCl)O[C@H](CCl)[C@@H](O)[C@@H]2O)[C@H](O)[C@@H](O)[C@H]1Cl [Sucralose]
Antidote activity against toxicity (nephrotoxicity and hepatotoxicity) caused by APAP [4]: effective in reducing or eradicating toxicity | ALT (hepatotoxicity) [2, 9]: 82.8 ± 8.4 IU/L | AST (hepatotoxicity) [2, 9]: 288.4 ± 33.8 IU/L | BUN (nephrotoxicity) [3, 9]: 33.6 ± 2.7 mg/dL | Creatinine (nephrotoxicity) [3, 9]: 0.40 ± 0.15 mg/dL
